From patent publication US9744145B1, “Methods for treating lung cancer” (Macau University of Science and Technology, priority 2017, dated 2017)

How the values were obtained:
PKM2 enzyme = PKM2 enzyme (Homo sapiens, UniProt P14618); experiment: PKM2 enzyme activity assay (KINASE GLO Plus); type: biochemical
Protocol: 5. PKM2 Enzyme Activity Assay
PKM2 biochemical assay Compounds were pre-incubated with 2 nmol/L PKM2 enzyme in reaction buffer (50 mmol/L Tris-HCl, pH 8.0, 200 mmol/L KCl, 30 mmol/L MgCl2, 2 mmol/L dithiothreitol (DTT), 5% DMSO) for 30 minutes at room temperature. ADP and PEP were then added to final concentrations of […] and 15 mmol/L, respectively. After 30 minutes, ATP formation was measured by KINASE GLO® Plus from Promega, and Concentration at half-maximal activation (AC50) values were determined using Prism GraphPad Software.
PKM2 enzyme activity assay over the concentration of formula I was performed in KINASE GLO® Plus assay. The controls were conducted in the presence of 5% Dimethyl sulfoxide (DMSO) and normalized to 100%±SD. […] (n=3, **p<0.005, ***p<0.001). […] The maximum PKM2 enzyme activity was more than 200% compared to that in controls.

A549 cells = experiment: Apoptosis assay, Annexin V/PI flow cytometry, A549; type: cell-based; conditions: 24, 48 and 72 hours, vs control group
Protocol: (§1) A549 and H1975 cells (1×10^5 cells/well) were seeded in a well plate with 6 wells for 24 hours, and treated with the indicated concentrations of formula I for an additional 24 hours, 48 hours and 72 hours at 37° C. After indicated hours, the cells were washed by ice-cold 1×PBS once and harvested by trypsination. Then cells were centrifuged, collected, and resuspended in ice-cold 1×PBS. After removing the supernatants, cell pellets were re-suspended in 100 μL 1×Annexin-binding buffer. The cells were then double-stained with Annexin-V FITC and PI (100 μg/mL) of 2 μL respectively for 15 min at room temperature in dark. After that, 300 μL 1× Annexin-binding buffer was added. Apoptotic cells were quantitatively counted by a BD Aria III Flow Cytometer (BD Biosciences, San Jose, Calif., USA)

H1975 cells = experiment: Apoptosis assay, Annexin V/PI flow cytometry, H1975; type: cell-based; conditions: 24, 48 and 72 hours, vs control group
Protocol: as §1

[1] = tested on: PKM2 phosphorylation / AKT pathway in A549 cells; experiment: Western blot analysis, A549; type: cell-based
Protocol: (§2) After incubation A549 and H1975 cells with formula I for 24 hours and 72 hours, A549 and H1975 cells were harvested and washed with cold 1×PBS. Then, cells were lysed with ice-cold RIPA lysis buffer with protease, and phosphatase inhibitors were added to extract the cell protein extraction. The supernatants were collected by centrifugation at 12,000 g, for 5 minutes. The quantitation of total protein extraction was measured by Bio-Rad DCTM protein assay kit (Bio-Rad, Philadelphia, Pa., USA). Then 30 μg of protein were loaded and electrophoretically separated on 8% SDS-PAGE gel and then transferred to Nitrocellulose (NC) membrane. Membranes were blocked with 5% non-fat milk and […] containing 0.1% Tween-20 (TBST) for 1 hour at room temperature. After 1 hour, membranes were incubated with primary anti-bodies (1:1000 dilution) against β-actin, total/phosphor-PKM2, total/phosphor-AKT, and BCL-2 at 4° C. with gently shaking overnight. Membranes were washed with TBST for 3 times (5 minutes/time), and incubated with secondary fluorescent antibody (1:10000 dilutions) for 1 hour at room temperature. Rewashing with TBST for 3 times (15 minutes/time), the stripes were visualized by LI-COR Odessy scanner (Belfast, Me., USA).

[2] = tested on: PKM2 phosphorylation / AKT pathway in H1975 cells; experiment: Western blot analysis, H1975; type: cell-based
Protocol: as §2

Sequence of PKM2 enzyme (P14618 whole entry): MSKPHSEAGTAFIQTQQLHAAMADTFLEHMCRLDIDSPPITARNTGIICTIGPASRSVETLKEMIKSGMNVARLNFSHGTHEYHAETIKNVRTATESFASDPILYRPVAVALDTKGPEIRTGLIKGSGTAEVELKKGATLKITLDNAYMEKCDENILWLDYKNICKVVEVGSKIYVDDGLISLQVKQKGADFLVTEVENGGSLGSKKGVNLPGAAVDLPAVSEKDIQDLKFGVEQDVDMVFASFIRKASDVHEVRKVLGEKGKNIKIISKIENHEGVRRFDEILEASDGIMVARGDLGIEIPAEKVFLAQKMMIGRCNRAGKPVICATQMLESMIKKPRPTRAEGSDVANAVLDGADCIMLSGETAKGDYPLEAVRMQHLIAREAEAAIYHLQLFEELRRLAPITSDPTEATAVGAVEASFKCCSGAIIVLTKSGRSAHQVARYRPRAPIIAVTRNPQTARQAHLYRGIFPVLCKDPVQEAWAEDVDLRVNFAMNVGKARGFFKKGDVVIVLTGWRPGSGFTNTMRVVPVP

AC50 (PKM2 enzyme; 2 nmol/L PKM2, KINASE GLO Plus, n=3, read-out: AC50 (concentration at half-maximal activation)): 5.5 ± 1 µM
maximum PKM2 enzyme activity compared to controls (PKM2 enzyme; controls with 5% DMSO normalized to 100%): more than 200%
Compound: O=S(=O)(Nc1ccccc1)c1ccc(-c2ccc(S(=O)(=O)Nc3ccccc3)cc2)cc1 [formula I]
apoptosis level (A549 cells): induced significant level of apoptosis in a concentration-dependent manner
apoptosis level (H1975 cells): induced significant level of apoptosis in a concentration-dependent manner
AKT pathway [1]: selectively inhibited AKT pathway
PKM2 phosphorylation ([1]; β-actin loading control): activated phosphorylation of both PKM2 in a dose-dependent manner
AKT pathway [2]: selectively inhibited AKT pathway
PKM2 phosphorylation ([2]; β-actin loading control): activated phosphorylation of both PKM2 in a dose-dependent manner
